Data from ChEMBL document CHEMBL3832761, “MMV Pathogen Box Bioactivity Data” (2017).
Values after ≈ are worked out from the molar mass of the structure shown.

Columns and labels:
Assay type in all cases: functional
[1] = tested on: Mycobacterium tuberculosis; assay: AntiMycobacterium tuberculosis activity Non-Replicating form: Average MIC90 (uM)
[2] = tested on: Mycobacterium tuberculosis; assay: AntiMycobacterium tuberculosis activity 2-week 7H9/DPPC/cholesterol/BSA/Tx MIC (uM); conditions: 336 h
[3] = tested on: Mycobacterium tuberculosis; assay: AntiMycobacterium tuberculosis activity 1-week 7H9/DPPC/cholesterol/BSA/Tx MIC (uM); conditions: 168 h
[4] = tested on: Mycobacterium tuberculosis; assay: AntiMycobacterium tuberculosis activity 2-week GAST/Fe MIC (uM); conditions: 336 h
[5] = tested on: Mycobacterium tuberculosis; assay: AntiMycobacterium tuberculosis activity 1-week 7H9/cholesterol/BSA/Tx MIC (uM); conditions: 168 h
[6] = tested on: Mycobacterium tuberculosis; assay: AntiMycobacterium tuberculosis activity 2-week Alamar Blue 7H9/cholesterol/BSA/Tx MIC (uM); conditions: 336 h
[7] = tested on: Mycobacterium tuberculosis; assay: AntiMycobacterium tuberculosis activity day 21 MIC99 in 7H9/2.5mM butyrate/pH6/0.1mM nitrite MIC99 (uM); conditions: 504 h
[8] = tested on: HepG2; assay: HepG2 CC50 (uM) Cytotoxicity; conditions: Homo sapiens
[9] = tested on: Mycobacterium tuberculosis; assay: AntiMycobacterium tuberculosis activity 1-week 7H9/ADC/Tw MIC (uM); conditions: 168 h
[10] = tested on: Mycobacterium tuberculosis; assay: AntiMycobacterium tuberculosis activity 2-week 7H9/ADC/Tw MIC (uM); conditions: 336 h
[11] = tested on: Mycobacterium tuberculosis; assay: AntiMycobacterium tuberculosis activity 1-week 7H9/glucose/BSA/Tx MIC (uM); conditions: 168 h
[12] = tested on: Mycobacterium tuberculosis; assay: AntiMycobacterium tuberculosis activity 2-week Alamar Blue 7H9/ADC/Tw MIC (uM); conditions: 336 h
[13] = tested on: Mycobacterium tuberculosis; assay: AntiMycobacterium tuberculosis activity Replicating form: Average MIC90 (uM)
[14] = tested on: Mycobacterium tuberculosis; assay: AntiMycobacterium tuberculosis activity day 21 in 7H9/2.5mM butyrate/pH6/0.1mM nitrite MIC90 (uM); conditions: 504 h
[15] = tested on: Mycobacterium tuberculosis; assay: AntiMycobacterium tuberculosis activity 2-week 7H9/glucose/BSA/Tx MIC (uM); conditions: 336 h
[16] = tested on: Mycobacterium tuberculosis; assay: AntiMycobacterium tuberculosis activity 1-week GAST/Fe MIC (uM); conditions: 168 h
[17] = tested on: Mycobacterium tuberculosis; assay: (§1) AntiMycobacterium tuberculosis activity day 10 in 7H9/2.5mM butyrate/pH6/0.1mM nitrite MIC90 (uM); conditions: 240 h
[18] = tested on: Mycobacterium tuberculosis; assay: as §1; conditions: 240 h; remark: listed apart in the source

Row | SMILES | MIC90 [1] [µM] | MIC [2] [µM] | MIC [3] [µM] | MIC [4] [µM] | MIC [5] [µM] | MIC [6] [µM] | MIC [7] [µM] | CC50 [8] [µM] | MIC [9] [µM] | MIC [10] [µM] | MIC [11] [µM] | MIC [12] [µM] | MIC90 [13] [µM] | MIC90 [14] [µM] | MIC [15] [µM] | MIC [16] [µM] | MIC90 [17] [µM] | MIC90 [18] [µM]
1 | CCc1c(C)nc(-n2nc(C)cc2NC(=O)c2ccccc2SC)[nH]c1=O | 1.25 (≈ 0.479 µg/mL) | > 50 | 3.13 (≈ 1.2 µg/mL) | 0.2 (≈ 0.0767 µg/mL) | 6.25 (≈ 2.4 µg/mL) | > 50 | > 50 | 1.3 | > 50 | > 50 | 9.4 (≈ 3.6 µg/mL) | 37 (≈ 14.2 µg/mL) | > 100 | > 50 | > 50 | 0.1 (≈ 0.0383 µg/mL) | 3.12 (≈ 1.2 µg/mL) | > 50
2 | CC(C)n1ncc2c(C(=O)NCC(c3cccs3)N3CCOCC3)cc(-c3ccccc3)nc21 (configuration not stated) | 1.28 (≈ 0.609 µg/mL) | 0.78 (≈ 0.371 µg/mL) | 0.78 (≈ 0.371 µg/mL) | 0.3 (≈ 0.143 µg/mL) | 0.6 (≈ 0.285 µg/mL) | 1.56 (≈ 0.742 µg/mL) | 1.5 (≈ 0.713 µg/mL) | 58 | 0.78 (≈ 0.371 µg/mL) | 1.2 (≈ 0.571 µg/mL) | 1.2 (≈ 0.571 µg/mL) | 1.2 (≈ 0.571 µg/mL) | 0.61 (≈ 0.29 µg/mL) | 3.12 (≈ 1.48 µg/mL) | 1.2 (≈ 0.571 µg/mL) | 0.3 (≈ 0.143 µg/mL) | 3.12 (≈ 1.48 µg/mL) | 1.5 (≈ 0.713 µg/mL)
3 | CNc1snc(C)c1C(=O)NCCOc1ccc(OC)cc1 | 19.8 (≈ 6.36 µg/mL) | 50 (≈ 16.1 µg/mL) | 19 (≈ 6.11 µg/mL) | 0.78 (≈ 0.251 µg/mL) | 3.13 (≈ 1.01 µg/mL) | 3.13 (≈ 1.01 µg/mL) | 50 (≈ 16.1 µg/mL) | > 100 | > 50 | > 50 | 50 (≈ 16.1 µg/mL) | 12.5 (≈ 4.02 µg/mL) | > 100 | 50 (≈ 16.1 µg/mL) | > 50 | 0.2 (≈ 0.0643 µg/mL) | 6.25 (≈ 2.01 µg/mL) | 6.25 (≈ 2.01 µg/mL)
4 | CCC(Sc1nc2ccccc2o1)C(=O)Nc1nnc(C)s1 (configuration not stated) | 4.49 (≈ 1.5 µg/mL) | > 50 | > 50 | 12.5 (≈ 4.18 µg/mL) | > 50 | > 50 | > 50 | > 100 | > 50 | > 50 | > 50 | > 50 | 68.4 (≈ 22.9 µg/mL) | 50 (≈ 16.7 µg/mL) | > 50 | 9.4 (≈ 3.14 µg/mL) | 50 (≈ 16.7 µg/mL) | > 50
5 | O=C(Nc1nnc(-c2ccc(Cl)s2)o1)c1ccc(Cl)s1 | 2.76 (≈ 0.956 µg/mL) | 12.5 (≈ 4.33 µg/mL) | 6.25 (≈ 2.16 µg/mL) | 1.2 (≈ 0.415 µg/mL) | 3.13 (≈ 1.08 µg/mL) | 6.25 (≈ 2.16 µg/mL) | > 50 | 50.1 | 9.4 (≈ 3.25 µg/mL) | 9.4 (≈ 3.25 µg/mL) | 4.7 (≈ 1.63 µg/mL) | 9.4 (≈ 3.25 µg/mL) | 35.2 (≈ 12.2 µg/mL) | 6.25 (≈ 2.16 µg/mL) | 6.25 (≈ 2.16 µg/mL) | 0.78 (≈ 0.27 µg/mL) | 6.5 (≈ 2.25 µg/mL) | > 50
6 | CCC(C)NC(=O)c1ccc(NC(=O)C2(c3ccccc3)CCCC2)cc1 (configuration not stated) | > 100 | > 50 | > 50 | > 50 | > 50 | > 50 | > 50 | > 100 | > 50 | > 50 | > 50 | > 50 | > 100 | > 50 | > 50 | 12.5 (≈ 4.56 µg/mL) | > 50 | > 50
7 | N#Cc1ccc(-c2ccc(OCC(N)=O)cc2)cc1 | 13.7 (≈ 3.46 µg/mL) | 50 (≈ 12.6 µg/mL) | 12.5 (≈ 3.15 µg/mL) | 4.7 (≈ 1.19 µg/mL) | 12.5 (≈ 3.15 µg/mL) | ≥ 50 | > 50 | > 100 | 37 (≈ 9.33 µg/mL) | > 50 | 25 (≈ 6.31 µg/mL) | 50 (≈ 12.6 µg/mL) | 23.2 (≈ 5.86 µg/mL) | 25 (≈ 6.31 µg/mL) | 50 (≈ 12.6 µg/mL) | 4.7 (≈ 1.19 µg/mL) | 25 (≈ 6.31 µg/mL) | > 50
8 | O=C(CCC1CCCCC1)Nc1cccc(-c2nnc(-c3ccco3)o2)c1 | 13.7 (≈ 4.99 µg/mL) | 3.13 (≈ 1.14 µg/mL) | 2.3 (≈ 0.84 µg/mL) | 1.2 (≈ 0.439 µg/mL) | 1.56 (≈ 0.57 µg/mL) | 3.13 (≈ 1.14 µg/mL) | 1.5 (≈ 0.548 µg/mL) | > 100 | 1.2 (≈ 0.439 µg/mL) | 2.3 (≈ 0.84 µg/mL) | 2.3 (≈ 0.84 µg/mL) | 2.3 (≈ 0.84 µg/mL) | 5.42 (≈ 1.98 µg/mL) | 1.5 (≈ 0.548 µg/mL) | 3.13 (≈ 1.14 µg/mL) | 1.2 (≈ 0.439 µg/mL) | 1.5 (≈ 0.548 µg/mL) | 1.5 (≈ 0.548 µg/mL)
9 | CCCCOC(=O)Nc1cc2nc(C3CCCCC3)[nH]c2cc1N1CCCC1 | 97.3 (≈ 37.4 µg/mL) | 0.2 (≈ 0.0769 µg/mL) | 0.15 (≈ 0.0577 µg/mL) | 0.15 (≈ 0.0577 µg/mL) | 0.1 (≈ 0.0385 µg/mL) | 0.2 (≈ 0.0769 µg/mL) | 0.78 (≈ 0.3 µg/mL) | 26.8 | 0.05 (≈ 0.0192 µg/mL) | 0.2 (≈ 0.0769 µg/mL) | 0.2 (≈ 0.0769 µg/mL) | 0.2 (≈ 0.0769 µg/mL) | 0.3 (≈ 0.115 µg/mL) | 0.78 (≈ 0.3 µg/mL) | 0.39 (≈ 0.15 µg/mL) | 0.1 (≈ 0.0385 µg/mL) | 0.39 (≈ 0.15 µg/mL) | 0.78 (≈ 0.3 µg/mL)
